# pKi: −log10 of the molar value.
# Target: T1, histamine 3 receptor (H3R) (Homo sapiens, UniProt Q9Y5N1)
# T1 construct: expressed in transfected cells; host or cells: CHO cells (HR3-CHO)
# Assay: Binding assay with 3H-(R)α-methylhistamine, competition binding on membranes of the human HR3-CHO cell line
# Settings: competition with 3H(R)α-methylhistamine (1 nM), Ki calculated from IC50 by Cheng-Prusoff
# Method: Binding Assay with ^3H-(R)α-methylhistamine
# Saturation binding experiments were performed using HR3-CHO membranes prepared as described in Takahashi, K, Tokita, S., Kotani, H. (2003) J. Pharmacol. Exp. Therapeutics 307, 213-218.
# An appropriate amount of membrane (60 to 80 μg protein/well) was incubated with increasing concentrations of ^3H(R)α-Methylhistamine di-hydrochloride (0.10 to 10 nM). Non specific binding was determined using a 200 fold excess of cold (R)α-Methylhistamine dihydrobromide (500 nM final concentration). The incubation was carried out at room temperature (in deep-well plates shaking for three hours). The final volume in each well was 250 μl. The incubation was followed by rapid filtration on GF/B filters (pre-soaked with 100 μl of 0.5% PEI in Tris 50 mM shaking at 200 rpm for two hours). The filtration was made using a cell-harvester and the filter plates were then washed five times with ice cold washing buffer containing 0.5 M NaCl. After harvesting, the plates were dried at 55° C. for 60 min, then we added scintillation fluid (Microscint 40, 40 microl in each well) and the amount of radioactivity on the filter was determined in Packard top-counter after shaking the plates for two hours at 200 rpm at room temperature.
# Binding Buffer: 50 mM Tris-HCl pH 7.4 and 5 mM MgCl2×6H2O pH 7.4. Washing Buffer: 50 mM Tris-HCl pH 7.4 and 5 mM MgCl2×6H2O and 0.5 M NaCl pH 7.4.
# Indirect measurement of affinity of H3R inverse agonists: twelve increasing concentrations (ranging from 10 μM to 0.3 nM) of the selected compounds were always tested in competition binding experiments using membrane of the human HR3-CHO cell line. […]
# All compounds were tested at a single concentration in duplicates. […] Ki's were calculated from IC50 based on Cheng-Prusoff equation (Cheng, Y, Prusoff, W H (1973) Biochem Pharmacol 22, 3099-3108).
# T1 sequence (Q9Y5N1 whole entry): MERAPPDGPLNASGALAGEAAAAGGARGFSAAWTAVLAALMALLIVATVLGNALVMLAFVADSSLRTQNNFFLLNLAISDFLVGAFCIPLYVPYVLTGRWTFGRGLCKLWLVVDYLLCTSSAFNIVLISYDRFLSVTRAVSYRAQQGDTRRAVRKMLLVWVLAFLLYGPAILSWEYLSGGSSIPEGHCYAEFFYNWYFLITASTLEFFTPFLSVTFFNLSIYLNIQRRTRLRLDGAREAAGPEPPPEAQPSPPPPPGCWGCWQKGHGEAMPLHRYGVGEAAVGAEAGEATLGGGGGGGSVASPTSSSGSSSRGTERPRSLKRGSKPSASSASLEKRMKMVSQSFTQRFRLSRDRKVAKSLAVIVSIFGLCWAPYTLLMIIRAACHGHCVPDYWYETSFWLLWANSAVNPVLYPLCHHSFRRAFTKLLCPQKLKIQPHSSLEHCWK
row,pKi,Compound
1,6.91,"c1cc2c(cc1-c1csc(C3CCN(C4CCCC4)CC3)n1)OCCO2 [Example 52, 1-cyclopentyl-4-[4-(2,3-dihydro-benzo[1,4]dioxin-6-yl)-thiazol-2-yl]-piperidine]"
2,7.55,"COc1ccc(-c2csc(C3CCN(C(C)C)CC3)n2)cc1 [Example 9, 1-isopropyl-4-[4-(4-methoxy-phenyl)-thiazol-2-yl]-piperidine]"
3,6.81,"CC1CCCCN1C(=O)c1csc(C2CCN(C3CCCC3)CC2)n1 (stereo not drawn) [Example 68, [2-(1-cyclopentyl-piperidin-4-yl)-thiazol-4-yl]-(2-methyl-piperidin-1-yl)-methanone]"

# Source: US7786143B2, “Thiazolyl piperidine derivatives” (Hoffman-La Roche Inc., priority 2005, dated 2010)
